The values that follow come from patent publication EP0723956B1, “Basically substituted benzoylguanidines, process for their preparation, their use as medicaments or diagnostics as well as medicaments containing them” (HOECHST AKTIENGESELLSCHAFT, priority 1995, dated 1996).

In brackets after ≈: the same amount, converted by molar mass.

The first data set concerns Rattenherzen.
Test: not given
Particulars: isolated rat hearts; Eur. Heart J. 9 (suppl.1): 167 (1988); cited from earlier work.
Turning to `CCN(c1nc(N)c(C(=O)N=C(N)N)nc1Cl)C(C)C` [Ethylisopropylamilorid], the “künstlich ausgelöstes Kammerflimmern” value was “Noch potenter als Amilorid”.
As to `NC(N)=NC(=O)c1nc(Cl)c(N)nc1N` [Amilorid], the “künstlich ausgelöstes Kammerflimmern” value was “völlig unterdrückt”.

Test system in a further data set: not listed separately
The experiment in a line: Water solubility. The format is physicochemical. Particulars: Dihydrochlorid, pH = 5.3, read-out: Wasserlöslichkeit.
On to `CN(C)CCc1ccc(Oc2ccc(C(=O)N=C(N)N)cc2C(F)(F)F)cc1` [Beispiel 21, 3-Trifluormethyl-4-[4-(2-dimethylaminoethyl)phenoxy]benzoyl-guanidin], for which the solubility worked out at 49 mg/mL (≈ 124 mM).

The target in a further data set is T1, Na^+/H^+-Exchangers von Kaninchenerythrocyten (Oryctolagus cuniculus, UniProt P23791).
T1 construct: den Na^+-Influx in die Erythrocyten via Na^+/H^+-Austausch flammenphotometrisch bestimmen zu können; endogenous in cells; host or cells: erythrocytes in whole blood from the ear arteries of New Zealand White rabbits
T1 sequence (P23791 whole entry): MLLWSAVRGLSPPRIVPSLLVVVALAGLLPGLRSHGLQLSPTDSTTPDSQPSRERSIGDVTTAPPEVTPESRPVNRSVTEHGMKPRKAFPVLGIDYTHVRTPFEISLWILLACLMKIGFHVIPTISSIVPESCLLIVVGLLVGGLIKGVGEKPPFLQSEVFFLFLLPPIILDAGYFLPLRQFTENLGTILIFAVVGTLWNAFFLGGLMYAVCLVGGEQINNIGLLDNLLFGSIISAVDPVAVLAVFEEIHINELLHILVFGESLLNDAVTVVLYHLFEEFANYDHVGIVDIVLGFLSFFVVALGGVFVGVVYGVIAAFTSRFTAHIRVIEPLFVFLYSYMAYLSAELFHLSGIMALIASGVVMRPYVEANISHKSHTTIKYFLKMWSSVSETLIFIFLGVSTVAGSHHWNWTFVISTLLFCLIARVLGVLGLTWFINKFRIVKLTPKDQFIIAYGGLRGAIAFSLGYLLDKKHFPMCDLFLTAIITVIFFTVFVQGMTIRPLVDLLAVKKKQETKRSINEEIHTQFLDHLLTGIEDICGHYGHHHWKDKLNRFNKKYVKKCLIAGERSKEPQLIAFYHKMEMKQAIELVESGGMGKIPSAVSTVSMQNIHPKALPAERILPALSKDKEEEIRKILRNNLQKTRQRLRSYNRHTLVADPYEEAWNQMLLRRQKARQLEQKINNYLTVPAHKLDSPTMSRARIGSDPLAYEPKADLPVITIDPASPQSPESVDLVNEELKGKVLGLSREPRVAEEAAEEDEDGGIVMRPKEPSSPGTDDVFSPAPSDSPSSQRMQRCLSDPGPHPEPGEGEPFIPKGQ
The experiment in a line: Inhibition of the Na+/H+ exchanger of rabbit erythrocytes (amiloride-sensitive Na+ influx, flame photometry). The format is cell-based, Kaninchen. The settings on record: Inhibition des Na^+/H^+-Exchangers; erythrocytes of cholesterol-fed rabbits, hyperosmolar salt-sucrose medium, pH 7,4, 37°C. From the text:
Inhibition des Na^+/H^+-Exchangers von Kaninchenerythrocyten
Weiße Neuseeland-Kaninchen (Ivanovas) erhielten eine Standard-Diät mit 2 % Cholesterin für sechs Wochen, um den Na^+/H^+-Austausch zu aktivieren und so den Na^+-Influx in die Erythrocyten via Na^+/H^+-Austausch flammenphotometrisch bestimmen zu können. Das Blut wurde den Ohrarterien entnommen und durch 25 IE Kalium-Heparin ungerinnbar gemacht. Ein Teil jeder Probe wurde zur Doppelbestimmung des Hämatokrits durch Zentrifugieren benutzt. Aliquots von jeweils 100 µl dienten zur Messung des Na^+-Ausgangsgehalts der Erythrocyten.
Um den Amilorid-sensitiven Natrium-lnflux zu bestimmen, wurden 100 µl jeder Blutprobe in jeweils 5 ml eines hyperosmolaren Salz-Sucrose-Mediums (mmol/l: 140 NaCl, 3 KCI, 150 Sucrose, 0,1 Ouabain, 20 Tris-hydroxymethyl-aminomethan) bei pH 7,4 und 37°C inkubiert. Die Erythrocyten wurden danach dreimal mit eiskalter MgCl2-Ouabain-Lösung (mmol/l: 112 MgCl2, 0,1 Ouabain) gewaschen und in 2,0 ml destilliertem Wasser hämolysiert. Der intrazelluläre Natriumgehalt wurde flammenphotometrisch bestimmt.
Der Na^+-Nettoinflux wurde aus der Differenz zwischen Natrium-Ausgangswerten und dem Natriumgehalt der Erythrocyten nach Inkubation errechnet. Der Amiloridhemmbare Natrium-lnflux ergab sich aus der Differenz des Natriumgehalts der Erythrocyten nach Inkubation mit und ohne Amilorid 3 x 10-4 mol/l. Auf diese Weise wurde auch bei den erfindungsgemäßen Verbindungen verfahren.
Consider `CS(=O)(=O)c1cc(C(=O)N=C(N)N)ccc1Oc1ccc(S(N)(=O)=O)cc1` [Beispiel 33, 3-Methylsulfonyl-4-(4-sulfamoylphenoxy)benzoylguanidin], for which the 50% inhibitory concentration (IC50) worked out at 200 nM.
On the same count and under the same terms, to `CN(C)CCc1ccc(Oc2ccc(C(=O)N=C(N)N)cc2S(C)(=O)=O)cc1` [Beispiel 14, 3-Methylsulfonyl-[4-(2-dimethylaminoethyl)phenoxy]benzoyl-guanidin] belongs 50 nM.
Take `CN1CCN(S(=O)(=O)c2ccc(Oc3ccc(C(=O)N=C(N)N)cc3C(F)(F)F)cc2)CC1` [Beispiel 4, 4-[4-(4-Methylpiperazinosulfonyl)phenoxy]-3-trifluormethylbenzoylguanidin]: the concentration for half-maximal inhibition (IC50) worked out at 82 nM.
Take `CN(C)CCS(=O)(=O)Cc1ccc(Oc2ccc(C(=O)N=C(N)N)cc2C(F)(F)F)cc1` [Beispiel 47, 4-[4-(2-Dimethylaminoethyl)sulfonylmethyl-phenoxy]-3-trifluormethylbenzoyl-guanidin]: the IC50 was 70 nM.
On the same count and under the same terms, to “4-[4-(N-t-Butylimido-N'-t-butyl)sulfamoyl]-3-trifluormethyl-benzoylguanidin [Beispiel 2]” belongs 320 nM.
Still for that read-out and setting: to `CN(C)CCc1ccc(Oc2ccc(C(=O)N=C(N)N)cc2C(F)(F)F)cc1` [Beispiel 21, 3-Trifluormethyl-4-[4-(2-dimethylaminoethyl)phenoxy]benzoyl-guanidin] belongs 14 nM; to `CN(C)CCS(=O)(=O)c1ccc(Oc2ccc(C(=O)N=C(N)N)cc2S(C)(=O)=O)cc1` [Beispiel 17, 4-[4-(2-Dimethylaminoethylsulfonyl)phenoxy]-3-methylsulfonylbenzoylguanidin], 1000 nM; to `CN(C)CCS(=O)(=O)Cc1ccc(Oc2ccc(C(=O)N=C(N)N)cc2S(C)(=O)=O)cc1` [Beispiel 46, 4-[4-(2-Dimethylaminoethyl)sulfonylmethyl-phenoxy]-3-methylsulfonylbenzoyl-guanidin], 90 nM.
On the same count and under the same terms, the result for `CN(C)CCSc1ccc(Oc2ccc(C(=O)N=C(N)N)cc2C(F)(F)F)cc1` [Beispiel 20, 4-[4-(2-Dimethylaminoethylthio)phenoxy]-3-trifluormethylbenzoylguanidin] reads 40 nM.
As to `CN(C)CCN(C)S(=O)(=O)c1ccc(Oc2ccc(C(=O)N=C(N)N)cc2C(F)(F)F)cc1` [Beispiel 3, 4-[4-N-(Dimethylaminoethyl)-methylsulfamoyl]phenoxy-3-trifluormethylbenzoylguanidin], the 50% inhibitory concentration (IC50) turned out to be 50 nM.
On the same count and under the same terms, the result for `CN(C)CCSCc1ccc(Oc2ccc(C(=O)N=C(N)N)cc2S(C)(=O)=O)cc1` [Beispiel 15, 4-[4-(2-Dimethylaminoethyl)thiomethyl-phenoxy]-3-methylsulfonylbenzoyl-guanidin] reads 10 nM; that for `CS(=O)(=O)c1cc(C(=O)N=C(N)N)ccc1Oc1ccc(C(O)Cn2ccnc2)cc1` (stereo not shown) [Beispiel 32, 4-[4-(2-N-lmidazolyl-1-hydroxyethyl)phenoxy]-3-methylsulfonylbenzoylguanidin], 440 nM; that for `CN(C)CCNS(=O)(=O)c1ccc(Oc2ccc(C(=O)N=C(N)N)cc2C(F)(F)F)cc1` [Beispiel 8, 4-[4-(N-Dimethylaminoethyl)sulfamoyl]phenoxy-3-trifluormethylbenzoylguanidin], 5 nM.
The same measure, in the same setting: to `N=S(N)(=O)c1ccc(Oc2ccc(C(=O)N=C(N)N)cc2C(F)(F)F)cc1` (stereo not shown) [Beispiel 9, 4-(4-lmidamidosulfonyl)phenoxy-3-trifluormethyl-benzoylguanidin] belongs 100 nM; to `CS(=O)(=O)c1cc(C(=O)N=C(N)N)ccc1Oc1ccc(C(=O)N=C(N)N)cc1` [Beispiel 18, 4-[(4-Guanidinocarbonyl)phenoxy]-3-methylsulfonylbenzoylguanidin], 200 nM; to `NC(N)=NC(=O)c1ccc(Oc2ccc(S(=O)(=O)NCCN3CCCC3)cc2)c(C(F)(F)F)c1` [Beispiel 5, 4-[4-(2-Pyrolidinethylaminosulfonyl)phenoxy]-3-trifluormethylbenzoylguanidin], 300 nM.
As to `CN(C)CCSc1ccc(Oc2ccc(C(=O)N=C(N)N)cc2S(C)(=O)=O)cc1` [Beispiel 16, 4-[4-(2-Dimethylaminoethylthio)phenoxy]-3-methylsulfonylbenzoylguanidin], the IC50 came to 160 nM.
The same measure, in the same setting: the result for `CN=C(NC)SCC(=O)c1ccc(Oc2ccc(C(=O)N=C(N)N)cc2S(C)(=O)=O)cc1` [Beispiel 28, 4-[4-(N,N'-Dimethyl-S-isothiuronyl-acetyl)phenoxy]-3-methylsulfonylbenzoylguanidin] reads 120 nM; that for `CN(C)CCSCc1ccc(Oc2ccc(C(=O)N=C(N)N)cc2C(F)(F)F)cc1` [Beispiel 19, 4-[4-(2-Dimethylaminoethyl)thiomethyl-phenoxy]-3-trifluormethylbenzoylguanidin], 8 nM; that for `CN(C)CCCNS(=O)(=O)c1ccc(Oc2ccc(C(=O)N=C(N)N)cc2C(F)(F)F)cc1` [Beispiel 7, 4-[4-(N-Dimethylamino-n-propyl)sulfamoyl]phenoxy-3-trifluormethylbenzoylguanidin], 60 nM.
Take `NC(N)=NC(=O)c1ccc(Oc2ccc(S(N)(=O)=O)cc2)c(C(F)(F)F)c1` [Beispiel 1, 4-(4-Aminosulfonyl)phenoxy-3-trifluormethyl-benzoylguanidin]: the IC50 stood at 800 nM.
Regarding `NC(N)=NC(=O)c1ccc(Oc2ccc(S(=O)(=O)NCCN3CCCCC3)cc2)c(C(F)(F)F)c1` [Beispiel 6, 4-[4-(2-Piperidinethylaminosulfonyl)phenoxy]-3-trifluormethylbenzoylguanidin], the IC50 amounted to 100 nM.
